This passage reports IKZF1 degradation code, ZFP91 degradation code and EC50 results from US20220242846A1, “ISOINDOLINONE COMPOUNDS” (Monte Rosa Therapeutics AG, priority 2019, published 2022).

Common to all, as to type: cell-based
For test [1], the target named is T1, IKZF1 (Homo sapiens, UniProt Q13422).
T1 construct: MM1S cells were purchased from ATCC (cat. Number CRL-2974); endogenous in cells; host or cells: MM1S (ATCC CRL-2974)
The test is described as follows: Selectivity determination by Western Blot assay in MM1S cells: IKZF1. More on the design: key: A represents a no degradation observed at 30 μM; B represents trace degradation at 30 μM (below 20%); C represents weak degradation at 30 μM (below 50%); D represents degradation at 30 μM (>90%); E represents degradation at 3 μM (>90%); F represents degradation at 0.3 μM (>90%). To be noted: MM1S cells, 0.3, 3 and 30 μM, 6 hours. The protocol:
(§1) CK1alpha/Ikaros/Aiolos/ZFP91 Selectivity determination by Western Blot Assay
(§2) MM1S cells were purchased from ATCC (cat. Number CRL-2974), sub-cultured in 90% RPMI 1640 with 10% FBS, supplemented with 1× P/S and incubated at 37° C., 5% CO2. Compounds were stored as 10 mM DMSO stock. For the assay, MM1S cells (3 million cells/well) were plated in 6-well plates and incubated over night. Cells were treated with respective compounds using a serial dilution: 0.3 μM, 3 μM and 30 μM as well as a vehicle only (DMSO) control for 6 hours. Media with suspension cells was subsequently transferred to 15 mL conical tubes, wells rinsed twice with ice-cold PBS and merged with cell suspension in respective 15 mL conical tube. Cells were spinned down, supernatant aspirated, pellets resuspended in ice-cold PBS and transferred to microtubes. Cells were spinned down, supernatant aspirated and pellets resuspended in 120 μL RIPA lysis buffer supplemented with protease and phosphatase inhibitors. Cell lysates were incubated on ice for 20 minutes followed by centrifugation at >20,000×g for 5 mM. Supernatants were transferred to fresh microtubes and stored at −80° C. Total protein concentration was determined using a BCA assay with a BSA standard curve and concentration of all samples was adjusted to 1 mg/mL. 25 μL 4× LDS sample buffer supplemented with 100 mM DTT was added to 75 μL sample. Samples were centrifuged (8,000×g, 1 min) and incubated at 95° C. for […] followed by another centrifugation step (8,000×g, 1 mM). 20 μL of each sample was loaded on a 4-12% gel alongside a protein molecular weight marker. Gels were run in the presence of MOPS buffer at 80 Volts for […], followed by 120 Volts for 1.5 h and proteins subsequently transferred onto nitrocellulose membranes at 20 Volts for 7 mM using an iBlot2 Gel Transfer Device. Membranes were then cut horizontally into two pieces, covering 80-50 kDa and 50-25 kDa. Blocking the membranes was performed by gently shaking in 5% (w/v) skim milk in TSB-T for 1 hr at room temperature. All primary antibodies were used at a 1/1000 in 5% (w/v) BSA dissolved in TBST and incubated with membranes over night at 4° C. After three washes with 1× TBST for 5 mM, HRP-coupled secondary antibodies diluted in 5% (w/v) BSA/TBST (Goat Anti-Rb IgG, dil. 1/10,000; Goat Anti-Mouse IgG, dil. 1/5000) were added for 1 hr at room temperature. After three washes with 1× TBST (5 minutes each), membranes were incubated with ECL reagent for 1 mM at room temperature. Chemiluminescence signals were then detected using a LAS-4000 system with default settings and signals quantified using Image Studio Lite software (version 5.2). Membrane parts previously incubated with antibody against CK1alpha were stripped off antibodies by incubating with stripping buffer for 30 minutes followed by three washed with TBST (5 mM each), blocking with 5% (w/v) skim milk for 1 hr, and incubation with primary antibody against GAPDH overnight at 4° C. Subsequent washes, incubation with secondary antibody and signal acquisition were performed as described above.
(§3) Table 5 assigns each compound a code indicating the ability for the degradation of IKZF1, IKZF3, CK1alpha and ZFP91: A, B, C, D, E or F. According to the code, A represents a no degradation observed at 30 μM, B represents trace degradation at 30 μM (below 20%), C represents weak degradation at 30 μM (below 50%), D represents degradation at 30 μM (>90%), E represents degradation at 3 μM (>90%) and F represents degradation at 0.3 μM (>90%).

In test [2] the target is T2, ZFP91 (Homo sapiens, UniProt Q96JP5).
T2 construct: MM1S cells were purchased from ATCC (cat. Number CRL-2974); endogenous in cells; host or cells: MM1S (ATCC CRL-2974)
The test can be described thus: Selectivity determination by Western Blot assay in MM1S cells: ZFP91. More on the design: key: A represents a no degradation observed at 30 μM; B represents trace degradation at 30 μM (below 20%); C represents weak degradation at 30 μM (below 50%); D represents degradation at 30 μM (>90%); E represents degradation at 3 μM (>90%); F represents degradation at 0.3 μM (>90%). To be noted: MM1S cells, 0.3, 3 and 30 μM, 6 hours. The protocol: as §1, §2, §3

Test [3] relates to Human mammary epithelial cells (HMEC) engineered to express c-myc tagged with EGFP. The test can be described thus: 3D spheroid assay, myc-HMEC (CellTiterGlo3D viability). (In general: In ATP-based viability assays light output follows the ATP content of the culture.)
The subject of test [4] is Human mammary epithelial cells (HMEC) engineered to express EGFP alone (non myc). The test can be described thus: 3D spheroid assay, non myc-HMEC (CellTiterGlo3D viability). To be noted: 120 h, 3D spheroids, 5 days with compound, read-out: Code: EC50 value in the non myc-HMEC assay.

pEC50: −log10 of the molar value. Read-outs that look alike come from different tables or passages of the source.

T1 sequence (Q96SW2 whole entry partner): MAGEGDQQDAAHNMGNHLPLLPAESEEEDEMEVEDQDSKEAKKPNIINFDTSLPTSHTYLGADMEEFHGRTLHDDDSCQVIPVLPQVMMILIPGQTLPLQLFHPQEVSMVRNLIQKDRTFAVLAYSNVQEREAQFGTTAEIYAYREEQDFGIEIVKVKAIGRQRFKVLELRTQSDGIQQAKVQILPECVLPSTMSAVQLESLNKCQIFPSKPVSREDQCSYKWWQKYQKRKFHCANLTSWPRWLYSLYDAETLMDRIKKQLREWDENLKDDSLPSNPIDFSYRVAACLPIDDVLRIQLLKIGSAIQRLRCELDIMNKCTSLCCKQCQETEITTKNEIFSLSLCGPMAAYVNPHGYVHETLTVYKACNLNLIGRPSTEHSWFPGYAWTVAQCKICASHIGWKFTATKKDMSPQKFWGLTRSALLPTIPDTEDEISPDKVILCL
T1 sequence (Q16531 2-1140 partner limits assumed): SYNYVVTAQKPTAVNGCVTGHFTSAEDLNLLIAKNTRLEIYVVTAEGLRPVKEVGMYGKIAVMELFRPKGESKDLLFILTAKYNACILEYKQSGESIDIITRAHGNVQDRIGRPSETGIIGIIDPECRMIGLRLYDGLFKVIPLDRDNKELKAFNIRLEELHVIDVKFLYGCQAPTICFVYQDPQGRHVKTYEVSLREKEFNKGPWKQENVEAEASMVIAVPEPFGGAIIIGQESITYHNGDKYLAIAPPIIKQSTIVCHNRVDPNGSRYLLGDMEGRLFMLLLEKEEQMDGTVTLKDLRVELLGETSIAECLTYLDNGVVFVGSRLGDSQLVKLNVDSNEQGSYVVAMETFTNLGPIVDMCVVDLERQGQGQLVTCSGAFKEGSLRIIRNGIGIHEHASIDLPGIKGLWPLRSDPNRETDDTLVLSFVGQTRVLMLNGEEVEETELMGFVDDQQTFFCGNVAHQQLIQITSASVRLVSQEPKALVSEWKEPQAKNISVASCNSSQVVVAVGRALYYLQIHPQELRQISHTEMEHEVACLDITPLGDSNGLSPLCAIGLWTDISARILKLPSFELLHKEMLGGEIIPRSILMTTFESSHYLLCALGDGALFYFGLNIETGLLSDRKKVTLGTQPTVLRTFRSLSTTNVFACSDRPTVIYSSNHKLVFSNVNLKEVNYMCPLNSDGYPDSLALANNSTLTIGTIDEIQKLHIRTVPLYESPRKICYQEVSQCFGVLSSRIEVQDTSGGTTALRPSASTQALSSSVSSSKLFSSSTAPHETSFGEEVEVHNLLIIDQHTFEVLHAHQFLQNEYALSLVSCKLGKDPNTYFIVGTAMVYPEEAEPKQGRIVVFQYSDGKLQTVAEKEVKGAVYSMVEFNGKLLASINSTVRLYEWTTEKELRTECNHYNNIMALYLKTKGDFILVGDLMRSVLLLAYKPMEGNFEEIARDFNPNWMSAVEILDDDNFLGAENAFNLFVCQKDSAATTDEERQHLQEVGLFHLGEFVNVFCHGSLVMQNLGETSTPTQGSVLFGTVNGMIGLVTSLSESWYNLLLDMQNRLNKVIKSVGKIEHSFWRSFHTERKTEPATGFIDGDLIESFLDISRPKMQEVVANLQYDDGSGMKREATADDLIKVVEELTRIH
T1 sequence (Q13422 whole entry): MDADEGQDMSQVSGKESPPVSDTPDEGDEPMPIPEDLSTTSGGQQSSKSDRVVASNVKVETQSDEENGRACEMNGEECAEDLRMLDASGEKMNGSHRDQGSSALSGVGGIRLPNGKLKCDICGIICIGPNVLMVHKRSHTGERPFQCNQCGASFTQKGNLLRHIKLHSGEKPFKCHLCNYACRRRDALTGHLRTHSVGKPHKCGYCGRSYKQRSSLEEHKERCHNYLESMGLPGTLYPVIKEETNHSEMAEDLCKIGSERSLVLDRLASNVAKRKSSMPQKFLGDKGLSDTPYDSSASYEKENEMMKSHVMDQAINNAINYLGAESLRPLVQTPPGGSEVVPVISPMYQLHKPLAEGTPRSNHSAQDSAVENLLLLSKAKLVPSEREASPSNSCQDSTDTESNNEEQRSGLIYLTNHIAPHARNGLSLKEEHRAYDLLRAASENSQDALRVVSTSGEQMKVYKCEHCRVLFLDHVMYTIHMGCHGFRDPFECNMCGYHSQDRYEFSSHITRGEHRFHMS
T2 sequence (Q96SW2 whole entry partner): as the sequence (Q96SW2 whole entry partner) above
T2 sequence (Q16531 2-1140 partner limits assumed): as the sequence (Q16531 2-1140 partner limits assumed) above
T2 sequence (Q96JP5 2-570 limits assumed): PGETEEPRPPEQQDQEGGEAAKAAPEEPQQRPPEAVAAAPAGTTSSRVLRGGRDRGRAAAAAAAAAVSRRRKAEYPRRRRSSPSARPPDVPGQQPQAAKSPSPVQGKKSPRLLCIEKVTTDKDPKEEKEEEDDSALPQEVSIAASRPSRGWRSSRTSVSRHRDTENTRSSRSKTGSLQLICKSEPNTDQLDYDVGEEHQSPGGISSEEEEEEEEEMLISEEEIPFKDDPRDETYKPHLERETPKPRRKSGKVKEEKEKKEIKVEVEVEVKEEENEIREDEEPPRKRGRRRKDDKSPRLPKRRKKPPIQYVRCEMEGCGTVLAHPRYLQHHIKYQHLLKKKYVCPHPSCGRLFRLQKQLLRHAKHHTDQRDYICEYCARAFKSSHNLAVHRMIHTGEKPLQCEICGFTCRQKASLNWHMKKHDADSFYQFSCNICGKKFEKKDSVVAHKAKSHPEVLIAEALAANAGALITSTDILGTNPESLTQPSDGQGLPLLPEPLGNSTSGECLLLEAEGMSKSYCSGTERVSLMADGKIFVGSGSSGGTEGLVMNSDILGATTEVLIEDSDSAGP

Regarding `Cc1c(Cl)cc(NC(=O)NCc2ccc3c(c2)C(=O)N(C2CCC(=O)NC2=O)C3)cc1CC1COCOC1` (stereo not drawn) [Compound 132], in test [1], the IKZF1 degradation code result is reported as “A”. Further, the ZFP91 degradation code entry in test [2] is “C (C represents weak degradation at 30 μM (below 50%))”.
For `O=C1CCC(N2Cc3ccc(CNC(=O)Nc4cccc(CN5CCOCC5)c4)cc3C2=O)C(=O)N1` (stereo not drawn) [Compound 105], in that order: “B (B represents trace degradation at 30 μM (below 20%))” and “B (B represents trace degradation at 30 μM (below 20%))”.
For `Cc1c(Cl)cc(NC(=O)NCc2ccc3c(c2)C(=O)N(C2CCC(=O)NC2=O)C3)cc1CN1CCOCC1` (stereo not drawn) [Compound 82], in that order: “A” and “A”.
What is called pEC50 is the negative decadic logarithm of the EC50, by convention in mol/L. With `Cc1ccc(NC(=O)NCc2ccc3c(c2)C(=O)N(C2CCC(=O)NC2=O)C3)cc1Cl` (stereo not drawn) [Compound 8], the IKZF1 degradation code entry in test [1] is “A”. Besides, the pEC50 in test [3] (Homo sapiens, HMEC, 120 h, 3D spheroids, 5 days with compound, read-out: Code: EC50 value in the myc-HMEC assay) is not below 6.40; in test [3] (myc-HMEC 3D spheroids (compounds with code D and E), 5 days, read-out: EC50) it was 6.66; in test [4], less than 5.00. In addition, the ZFP91 degradation code entry in test [2] is listed as “B (B represents trace degradation at 30 μM (below 20%))”.
As for `Cc1cc(C)c(NC(=O)NCc2ccc3c(c2)C(=O)N(C2CCC(=O)NC2=O)C3)cc1Cl` (stereo not drawn) [Compound 85], the IKZF1 degradation code result in test [1] is recorded as “A”. Also, the ZFP91 degradation code entry in test [2] is “A”.
For `Cc1c(Cl)cc(NC(=O)NCc2ccc3c(c2)C(=O)N(C2CCC(=O)NC2=O)C3)cc1CN(C)C` (stereo not drawn) [Compound 75], the IKZF1 degradation code result in test [1] is “A”. For the same compound, the ZFP91 degradation code result in test [2] is on record as “A”. In addition, the pEC50 in test [4] is less than 5.00.
For the compound `Cc1ccc(NC(=O)NCc2ccc3c(c2)C(=O)N(C2CCC(=O)NC2=O)C3)c(Cl)c1Cl` (stereo not drawn) [Compound 87], in test [1], the IKZF1 degradation code entry is “A”. The ZFP91 degradation code entry in test [2] is “A”.
